Source: article PMC7179167 (Molecules, 2020)
In brackets after ≈: the same amount, converted by molar mass. Where two headings read alike, the source gives them in different places.

Experiments:
B. subtilis (ATCC 6633) = assay: Disk diffusion antimicrobial test, B. subtilis; format: cell-based, Bacillus subtilis; conditions: 20 mg per disc (title), concentration 20 µg (footnote); for zone of inhibition at 20 µg/disc: Bacillus subtilis, ATCC6633, Gram-positive
Method: (§1) The newly synthesized compounds were chosen to be evaluated in vitro towards a variety of pathogenic microorganisms; Gram-positive bacteria: S. aureus (ATCC 6538) and B. subtilis (ATCC 6633); Gram-negative bacteria: P. areuginosa (ATCC 27853) and E. coli (DSMZ 1058); yeast: C. albicans (ATCC 10231) and S. cerevisiae (ATCC 9080) and fungi: A. niger (NRRL A-326) using the disk diffusion method at a single dose of 20 µl. The results are shown in Table 1 as the growth inhibition zone (mm).
(§2) The antimicrobial activity of target compounds were evaluated to be in vitro against a variety of pathogenic microorganisms, namely Staphylococcus aureus (ATCC 6538), Bacillus subtilis (ATCC 6633) (Gram-positive bacteria), Pseudomonas areuginosa (ATCC 27853), Escherichia coli (DSMZ 1058) (Gram-negative bacteria), Candida albicans (ATCC 10231), Saccharomyces cerevisiae (ATCC 9080) (Yeast) and Aspergillus niger (NRRL A-326) (Fungi) using the disk diffusion method at a single dose of 20 µg. The microorganisms were served and obtained from the Microbial Biotechnology Department, National Research Center, Giza, Egypt. Amphotericin, amoxicillin and ciprofloxacin were used as reference drugs (Oxoid™ Disks). The tested compounds 11a–c, 12a–c, 13a–i, 14a–i and 15a,b were dissolved in dimethylsulphoxide (DMSO) at a concentration of 1 mg/mL. Aliquots of 20 μl were soaked on filter paper discs (6 mm) and dried at room temperature under sterilized conditions. The paper discs were placed on inoculated agar plats and then incubated for 24 h at 37 °C for bacterial strains and after 48–72 h incubation at 30 °C for fungi. Both bacterial and yeast strains were grown on nutrient agar medium (g/l): beef extract, 3; peptone, 10 and agar, 20 at pH of 7.2. The fungal strain was grown on Czapek-Dox medium (g/l): sucrose, 30; NaNO3, 3; MgSO4.7H2O, 0.5l; KCl, 0.5; FeSO4, 0.01; K2HPO4, 1 and agar, 20 at pH of 6.0.

S. aureus (ATCC 6538) = assay: Disk diffusion antimicrobial test, S. aureus; format: cell-based, Staphylococcus aureus; conditions: 20 mg per disc (title), concentration 20 µg (footnote); for zone of inhibition at 20 µg/disc: Staphylococcus aureus, ATCC6538, Gram-positive
Method: as §1, §2

C. albicans (ATCC 10231) = assay: Disk diffusion antimicrobial test, C. albicans; format: cell-based, Candida albicans; conditions: yeast, 20 mg per disc (title), concentration 20 µg (footnote); for zone of inhibition at 20 µg/disc: Candida albicans, ATCC10231, disk diffusion
Method: as §1, §2

[1] = DPPH free radical scavenging assay; format: biochemical; conditions: concentration of 20µg/l, mean ± SD of three experiments
Method: Antioxidant activity of the newly synthesized 13a–i, 14a–i, 11a–c and 12a–c were assessed in terms of hydrogen-donating or radical-scavenging ability via the stable free radical 1,1-diphenyl-2-picrylhydrazyl (DPPH) using ascorbic acid as a reference at a concentration of […].
The free radical scavenging activity (RSA) was assessed spectrophotometically at 517 nm via decoloration of the solution of the DPPH (1,1-diphenyl-2-picrylhydrazyl) radical according to Brand-Williams et al. 1995 [32]. DPPH solution was prepared by dissolving of 20 mg of DPPH in one liter of dimethylsulphoxide (DMSO). A freshly prepared DPPH solution was used for the assay. Each of the tested compounds 11a–c, 12a–c, 13a–i, 14a–i and 15a,b were dissolved in DMSO (1mg/mL). A volume of […] of a DMSO stock solution of the test compounds was added to 2 mL of freshly prepared DPPH in DMSO solution. The mixtures were shaken in a vortex (2500 rpm) for 1 min and then left to stand for 15, 30, 45 and 60 min in the dark room. The absorbance was measured at 517 nm against blank using UV visible spectrophotometer 2401 PC (Shimadzu, Kyoto, Japan). Lower absorbance of the reaction mixture indicated higher free radical scavenging activity was analyzed from the graph plots of the inhibition percentage against the compound concentration. The experiment was carried out in triplicate and averaged. The scavenging activity was calculated according to the following formula:Scavenging ability (%) = (A517 of control - A517of sample / A 517 of control) ×100(1)

[2] = test system: HCT-116 (human colon cancer); assay: MTT cytotoxicity assay, HCT-116; format: cell-based; conditions: Homo sapiens; for inhibition at 100 µg/mL: HCT-116, 100 µg/ml, 48 h, read-out: Growth Inhibition (%) HCT-116; for IC50: HCT-116, 48 h, 48 h post-treatment
[3] = test system: MCF-7 (human breast cancer); assay: MTT cytotoxicity assay, MCF-7; format: cell-based; conditions: for inhibition at 100 µg/mL: MCF7, 100 µg/ml, 48 h, read-out: Growth Inhibition (%) MCF-7; for IC50: MCF7, 48 h post-treatment
Method: (§3) MCF-7 (human breast cancer), HCT-116 (human colon cancer) and HepG2 (human liver cancer) cell lines were obtained from Karolinska Institute, Stockholm, Sweden. All cells were maintained in RPMI 1640 medium. The media were supplemented with 10% heat-inactivated fetal bovine serum plus 1% antibiotic-antimycoticmixture (10,000 U/mL of potassium penicillin, 10,000 μg/mL of streptomycin sulfate, 25 μg/mL of amphotericin B and 1% of L glutamine (Biowest, USA)). BJ-1 of a human skin fibroblast derived from normal foreskin was obtained from ATCC® CRL-2522™ as a frozen ampoule with about 1 × 10^6 cells per 1 ml volume. BJ-1 was maintained in MEM with 2 mM of L-glutamine and Earle’s salts medium.
(§4) Cell viability was studied using the MTT 3-(4,5-dimethylthiazol-2-yl)-2,5-diphenyl-tetrazolium bromide (Bio Basic Canada Inc. Toronto, Canada) assay [33]. The steps were executed in a sterile laminar air flow cabinet biosafety class II level (Baker, SG403INT; Sanford, ME, USA). All incubations were carried out at 37 °C in a 5% CO2 incubator under a humidified atmosphere of 95% (Sheldon, TC2323; Cornelius, OR, USA). Cells were seeded into 96-well microtiter plastic plates at a concentration of (10^4 cells/well) and allowed to adhere for 24 h. The medium was aspirated and then added to the cells with the test compounds 11a–c, 12a–c, 13a–i, 14a–i and 15a,b at a single dose of 100 μg/mL in DMSO. After incubation of the medium for 48 h, 40 μL of MTT salt (2.5 μg/mL) was added to each well and then incubated for an additional 4 h. To stop the reaction and dissolve any formed formazan crystals, 200 μL of 10% sodium dodecyl sulfate (SDS) were added to each well and incubated overnight at 37 °C. The amount of formazan product was measured at 595 nm with a reference wavelength of 690 nm as a background using a microplate reader (Bio-Rad Laboratories, model 3350, California, USA). For the untreated cells (negative control), the medium was added instead of the tested compounds. […] Dimethylsulfoxide (DMSO) was the vehicle used for dissolution of the testing compound, and its final concentration on the cells was less than 0.2%. At the same dilution, the solvent concentration was the same for all drugs and between the control and drug treatments.

[4] = test system: normal skin fibroblast cells (BJ-1); assay: MTT cytotoxicity assay, normal skin fibroblast BJ-1; format: cell-based; conditions: Homo sapiens, 48 h, read-out: Growth Inhibition (%) BJ-1
Method: as §3, §4

[5] = test system: S. cerevisiae (ATCC 9080); assay: Disk diffusion antimicrobial test, S. cerevisiae; format: cell-based; conditions: Saccharomyces cerevisiae, ATCC9080, yeast, 20 mg per disc (title), concentration 20 µg (footnote)
Method: as §1, §2

[6] = test system: HepG-2 (human liver cancer); assay: MTT cytotoxicity assay, HepG-2; format: cell-based; conditions: for inhibition at 100 µg/mL: HepG2, 100 µg/ml, 48 h, read-out: Growth Inhibition (%) HepG-2; for IC50: HepG2, 48 h post-treatment
Method: as §3, §4

[7] = test system: P. aeruginosa (ATCC 27853); assay: Disk diffusion antimicrobial test, P. aeruginosa; format: cell-based, Pseudomonas areuginosa; conditions: Pseudomonas aeruginosa, ATCC27853, Gram-negative, 20 mg per disc (title), concentration 20 µg (footnote)
Method: as §1, §2

[8] = 15 min, read-out: Scavenging Activity (%) on DPPH radicals at 15 min
[9] = 30 min, read-out: Scavenging Activity (%) on DPPH radicals at 30 min
[10] = 45 min, read-out: Scavenging Activity (%) on DPPH radicals at 45 min
[11] = 60 min, read-out: Scavenging Activity (%) on DPPH radicals at 60 min

Compound	zone of inhibition at 20 µg/disc (B. subtilis (ATCC 6633))	zone of inhibition at 20 µg/disc (S. aureus (ATCC 6538))	Inhibition Zone (mm), C. albicans (ATCC 10231) (C. albicans (ATCC 10231); disk diffusion)	inhibition [1, 8]	inhibition [1, 9]	inhibition [1, 10]	inhibition [1, 11]	Inhibition Zone (mm), B. subtilis (ATCC 6633) (B. subtilis (ATCC 6633); Gram-positive)	Inhibition Zone (mm), S. aureus (ATCC 6538) (S. aureus (ATCC 6538); Gram-positive)	zone of inhibition at 20 µg/disc (C. albicans (ATCC 10231))	melting point	inhibition at 100 µg/mL [2]	IC50 [2]	inhibition at 100 µg/mL [3]	IC50 [3]	inhibition at 100 µg/mL [4]	zone of inhibition at 20 µg/disc [5]	inhibition at 100 µg/mL [6]	IC50 [6]	zone of inhibition at 20 µg/disc [7]
CC1(C)S[C@@H]2[C@H](NC(=O)[C@H](N)c3ccc(O)cc3)C(=O)N2[C@H]1C(=O)O [Amoxicillin, amoxicillin, reference compound]	28.4 mm	25.6 mm	–	–	–	–	–	–	–	–	–	–	–	–	–	–	–	–	–	–
3-(6-Hydroxy-4,6-dimethoxybenzofuran-5-yl)quinoline-4-carboxylic acid [Compound 15b]	–	–	8 mm	23.6 ± 1.36%	32.7 ± 1.13%	39.2 ± 1.29%	47.5%	10 mm	8 mm	–	–	–	–	–	–	–	–	–	–	–
CCn1cc(C2=NNC3(C2)C(=O)Nc2ccccc23)c2ccccc21 (stereo not shown) [Compound 13b, 5’-(N-Ethyl-1H-indol-3-yl)-2’,4’-dihydrospiro(indoline-3,3’-pyrazol)-2-one]	–	–	–	43.5 ± 1.98%	47 ± 1.81%	56.3 ± 1.29%	65.5 ± 1.55%	–	–	18 mm	143 to 145 °C	94.5%	21.3 µg/mL (≈ 64.5 µM)	95.4%	24 µg/mL (≈ 72.6 µM)	10.4%	18 mm	81.4%	48 µg/mL (≈ 145 µM)	–
CCOc1c(C2=NNC3(C2)C(=O)Nc2ccccc23)c(OC)c2ccoc2c1OC (stereo not shown) [Compound 12c, 5’-(6-Ethoxy-4,7-dimethoxy-benzofuran-5-yl)-2’,4’-dihydrospiro(indoline-3,3’-pyrazol)-2-one]	18 mm	10 mm	–	9.76 ± 1.76%	10.2 ± 1.26%	11.4 ± 1.53%	14 ± 1.55%	–	–	10 mm	–	12.4%	–	6.3%	–	62.3%	10 mm	–	–	20 mm
O=C1Nc2ccccc2C12CC(c1cn(S(=O)(=O)c3ccc(Br)cc3)c3ccccc13)=NN2 (stereo not shown) [Compound 13g, 5’-(N-(4-Bromo-benzenesulfonyl)-1H-indol-3-yl)-2’,4’-dihydrospiro(indoline-3,3’-pyrazol)-2-one]	–	–	–	25.9 ± 1.85%	44 ± 1.46%	49.2 ± 1.77%	53.7 ± 1.81%	–	–	–	190 to 192 °C	92.4%	35.3 µg/mL (≈ 67.7 µM)	91.6%	43 µg/mL (≈ 82.5 µM)	13%	–	81.9%	72.2 µg/mL (≈ 138 µM)	–
O=C1Nc2ccccc2C12CC(c1cn(S(=O)(=O)c3ccc(Cl)cc3)c3ccccc13)=NN2 (stereo not shown) [Compound 13h, 5’-(N-(4-Chloro-benzensulfonyl)-1H-indol-3-yl)-2’,4’-dihydrospiro(indoline-3,3’-pyrazol)-2-one]	–	–	–	15.2 ± 1.98%	16.3 ± 1.96%	20.6 ± 1.48%	35.7 ± 1.91%	–	–	–	197 to 199 °C	91.3%	20.5 µg/mL (≈ 43 µM)	93.4%	5.8 µg/mL (≈ 12.2 µM)	14.1%	–	79.5%	19.2 µg/mL (≈ 40.3 µM)	–
O=C1Nc2ccccc2C12CC(c1c[nH]c3ccccc13)=NN2 (stereo not shown) [Compound 13a, 5’-(1H-Indol-3-yl)-2’,4’-dihydrospiro(indoline-3,3’-pyrazol)-2-one]	–	–	–	41.1 ± 1.25%	45.8 ± 1.36%	56.5 ± 1.99%	64.1 ± 2.01%	–	–	18 mm	318 to 320 °C	96.9%	31.3 µg/mL (≈ 104 µM)	96.4%	32.4 µg/mL (≈ 107 µM)	11.6%	20 mm	89.3%	60.6 µg/mL (≈ 200 µM)	–
CCOc1cc2occc2c(OC)c1C1=NNC2(C1)C(=O)Nc1ccccc12 (stereo not shown) [Compound 11c, 5’-(6-Ethoxy-4-methoxy-benzofuran-5-yl)-2’,4’-dihydrospiro(indoline-3,3’-pyrazol)-2-one]	10 mm	–	–	40.6 ± 1.28%	40.6 ± 1.81%	40.6 ± 1.67%	40.6 ± 1.35%	–	–	25 mm	137 to 139 °C	30.2%	–	0%	–	45.2%	25 mm	–	–	10 mm
